3 molecules from paper PMC3488358 (Chemical biology & drug design, 2013) can be followed below.

One experiment relates to Candida krusei ATCC 6258. Description: In vitro antifungal activity. Format: cell-based.
Experiment [1] concerns Aspergillus fumigatus ATCC 204305. Description: In vitro antifungal activity. Format: cell-based.
The next experiment has as its system HIV-1NL4.3 virus. As to the kind of experiment: Anti-HIV activity, p24 antigen capture ELISA in CEM-GFP cells. Format: cell-based. Particulars: CEM-GFP cells infected with HIV-1NL4.3, non-cytotoxic concentration.
The test system of another experiment is P. falciparum (W2 Clone). The experiment is classed as cell-based, Plasmodium falciparum. Particulars: read-out: P. falciparum (W2 Clone) IC50; chloroquine-resistant W2 clone.
In a further experiment the test system is P. falciparum (D6 Clone). The experiment is classed as cell-based, Plasmodium falciparum. Particulars: read-out: P. falciparum (D6 Clone) IC50; chloroquine-sensitive D6 clone.
The subject of experiment [2] is Candida albicans ATCC 90028. Description: In vitro antifungal activity. The experiment is classed as cell-based.
Experiment [3] relates to Cryptococcus neoformans ATCC 90113. As to the kind of experiment: In vitro antifungal activity. Format: cell-based.
Experiment [4] concerns Escherichia coli ATCC 35218. Description: Antibacterial susceptibility testing. The experiment is classed as cell-based.
Experiment [5] deals with Leishmania donovani promastigotes. Description: In vitro antileishmanial activity, Alamar Blue assay. The experiment is classed as cell-based. The settings on record: for IC50: read-out: L. donovani IC50; for IC90: read-out: L. donovani IC90. (Alamar Blue is a resazurin reagent that responds to reducing activity.)
The test system of experiment [6] is Pseudomonas aeruginosa ATCC 27853. Description: Antibacterial susceptibility testing. Format: cell-based.
Experiment [7] concerns Mycobacterium intracellulare ATCC 23068. Description: Antibacterial susceptibility testing. Format: cell-based.
For experiment [8], the system named is Staphylococcus aureus ATCC 29213. As to the kind of experiment: Antibacterial susceptibility testing. Format: cell-based.
For experiment [9], the system named is Methicillin-resistant S. aureus ATCC 33591 (MRSA). As to the kind of experiment: Antibacterial susceptibility testing. The experiment is classed as cell-based, Staphylococcus aureus.
For experiment [10], the system named is Candida glabrata ATCC 90030. Description: In vitro antifungal activity. The experiment is classed as cell-based.

Where “and” joins values, the source holds several entries; their conditions need not be identical. Equal entries are not always repeated. Where two headings read alike, the source gives them in different places.

By IC50 is commonly meant the point on the concentration scale where inhibition reaches its midpoint. The IC90 is the concentration at which the effect reaches the 90% level. For the molecule `CCCCC[C@@H]1C[C@@H]2CC[C@@H]3C[C@H](C)NC(=N1)N32` (racemic) [17l, batzelladine K], in the experiment with Candida krusei ATCC 6258, the “Candida krusei MFC” value was “- (“-” = No activity at the highest test concentration of 20 μg/mL)” and the “Candida krusei MIC” value is “- (“-” = No activity at the highest test concentration of 20 μg/mL)”. In addition, in experiment [1], the “Aspergillus fumigatus MFC” value is “- (“-” = No activity at the highest test concentration of 20 μg/mL)” and the “Aspergillus fumigatus MIC” value was “- (“-” = No activity at the highest test concentration of 20 μg/mL)”. Also, the “anti-HIV activity (inhibition of HIV-1)” value in the experiment with HIV-1NL4.3 virus is on record as “no anti-HIV activity”. In addition, the IC50 in the experiment with P. falciparum (W2 Clone) came out at 13.7 µM. In the experiment with P. falciparum (D6 Clone), the IC50 amounted to 14.8 µM. For the same molecule, in experiment [2], the “Candida albicans MFC” value is reported as “- (“-” = No activity at the highest test concentration of 20 μg/mL)” and the “Candida albicans MIC” value is “- (“-” = No activity at the highest test concentration of 20 μg/mL)”. For the same molecule, in experiment [3], the “Cryptococcus neoformans MFC” value is “- (“-” = No activity at the highest test concentration of 20 μg/mL)” and the “Cryptococcus neoformans MIC” value is recorded as “- (“-” = No activity at the highest test concentration of 20 μg/mL)”. Further, the IC50 in experiment [3] (read-out: Cryptococcus neoformans IC50) was 76.2 µM. In [4], the “E.coli IC50” value is “- (“-” = Not active at the highest test concentration of 20 μg/mL)”, the “E.coli MBC” value is “- (“-” = Not active at the highest test concentration of 20 μg/mL)” and the “E.coli MIC” value was “- (“-” = Not active at the highest test concentration of 20 μg/mL)”. In [5] (promastigotes), the IC50 stood at 48.2 µM and the IC90 was 124 µM. Further, in experiment [6], the “P. aeruginosa IC50” value is listed as “- (“-” = Not active at the highest test concentration of 20 μg/mL)”, the “P. aeruginosa MBC” value is “- (“-” = Not active at the highest test concentration of 20 μg/mL)” and the “P. aeruginosa MIC” value is “- (“-” = Not active at the highest test concentration of 20 μg/mL)”. Besides, in [7], the “M. intracellulare MBC” value is given as “- (“-” = Not active at the highest test concentration of 20 μg/mL)” and the “M. intracellulare MIC” value is recorded as “- (“-” = Not active at the highest test concentration of 20 μg/mL)”. For the same molecule, the IC50 in experiment [7] (read-out: M. intracellulare IC50) was 79.5 µM. In addition, in [8], the “S. aureus MBC” value is given as “- (“-” = Not active at the highest test concentration of 20 μg/mL)” and the “S. aureus MIC” value was 80.32 µM. For the same molecule, the IC50 in experiment [8] (read-out: S. aureus IC50) came out at 64.1 µM. In experiment [9], the “MRSA MBC” value is reported as “- (“-” = Not active at the highest test concentration of 20 μg/mL)” and the “MRSA MIC” value was 80.3 µM. Moreover, the concentration for half-maximal inhibition (IC50) in [9] (read-out: MRSA IC50) is 56 µM and 56.1 µM. Besides, in experiment [10], the “Candida glabrata MFC” value was “- (“-” = No activity at the highest test concentration of 20 μg/mL)” and the “Candida glabrata MIC” value was “- (“-” = No activity at the highest test concentration of 20 μg/mL)”.
For the molecule `C[C@@H]1[C@H](O)[C@@H](C)/C=C/C=C/C=C/C=C/C=C/C=C/C=C/[C@H](O[C@@H]2O[C@H](C)[C@@H](O)[C@H](N)[C@@H]2O)C[C@@H]2O[C@](O)(C[C@@H](O)C[C@@H](O)[C@H](O)CC[C@@H](O)C[C@@H](O)CC(=O)O[C@H]1C)C[C@H](O)[C@H]2C(=O)O` [Amphotericin B], in experiment [5] (Leishmania donovani), the IC50 was determined as 0.173 µM and the 90% effect concentration (IC90) was 0.358 µM.
Consider `N=C(N)c1ccc(OCCCCCOc2ccc(C(=N)N)cc2)cc1` [Pentamidine], for which, in [5] (Leishmania donovani), the IC50 came to 2.94 µM and the IC90 was found to be 5.88 µM.
